Reference: patent US20250108038A1 (priority 2023, published 2025)

Columns and labels:
[1] = Stability in components of rat blood; type: in vitro ADME; settings: 0.5 mM, 37° C., 0-120 min
Method: FIG. 5A. […] Compound I-19 in components of rat blood. Red blood cells and plasma were isolated from whole blood. […] Values represent mean+SEM of n=3 separate experiments.
FIG. 5B. Stability of Compound I-4 in components of rat blood. Red blood cells and plasma were isolated from whole blood. […] Values represent mean+SEM of n=3 separate experiments.
Human and rat blood were centrifuged to separate out red blood cells at 1174×g for 15 min. The upper plasma level was aspirated with a micropipette and placed in a bleach solution for disposal. The RBC pellet was resuspended in sterile isotonic saline. The pellet was gently resuspended by rocking the tube. The sample was then centrifuged again to collect the RBC pellet and then resuspended and washed one more time following the same procedure. A total of three was done. Following the last wash and centrifugation, the RBCs were resuspended with PBS; and mixed by inversion. Aliquots of the resuspended and washed RBCs were then placed into 4 reaction tubes. These tubes were centrifuged to collect the RBCs. The fluid level was marked on each tube, then the supernatant was aspirated off and the cells resuspended with room temperature PBS pH 7.4 to the original mark. An aliquot of the RBC suspension was added to four sterile tubes containing PBS pH 7.4 at room temperature.
The stability of test articles in whole blood, red blood cells only, and plasma was done to determine stability in each blood compartment. 50 μL of test article was placed in each blood matrix. The final volume was 1 mL (0.5 mM). […] LCMSMS of parent compound was used to determine stability.

[2] = system: human red blood cells; assay: Hemolysis study in human blood; type: cell-based; settings: 60 min, 37° C.
Method: FIG. 4A. […] Compound I-19 in human blood. Red blood cells were isolated from whole blood and resuspended in PBS. […] (final concentrations 25, 50, and 100 μM) and the mixtures were incubated at 37° C. for 60 min. After the incubation, the samples were centrifuged and the absorbance of 100 μL of supernatant was read at 410 nm. % RBC lysis is expressed relative to 100% lysis control. Values represent mean+SEM of n=3 separate experiments.
FIG. 4B. Hemolytic Potential of Compound I-4 in human blood. Red blood cells were isolated from whole blood and resuspended in PBS. 190 μL of diluted RBC suspension and 10 μL of Compound I-4 solutions were mixed at 0 min. (final concentrations 25, 50, and 100 μM) and the mixtures were incubated at 37° C. for 60 min. After the incubation, the samples were centrifuged and the absorbance of 100 μL of supernatant was read at 410 nm. % RBC lysis is expressed relative to 100% lysis control. Values represent mean+SEM of n=3 separate experiments.
FIG. 4C. Hemolytic Potential of Amphotericin B in human blood (positive assay control). Red blood cells were isolated from whole blood and resuspended in PBS. 190 μL of diluted RBC suspension and 10 μl of amphotericin B solutions were mixed at 0 min. (final concentrations 1, 10, 30, and 100 μM) and the mixtures were incubated at 37° C. for 60 min. After the incubation, the samples were centrifuged and the absorbance of 100 μL of supernatant was read at 410 nm. % RBC lysis is expressed relative to 100% lysis control. Values represent mean+SEM of n=3 separate experiments.
To a clear 96-well V-bottom polystyrene plate, the test articles (10 μL) and the diluted RBCs (190 μL) from human or rat blood were mixed for final concentrations of 25, 50, and 100 μM. The reaction mixture was incubated at 37° C. for 60 min. Following the exposure period, the plates were centrifuged. After centrifugation, 70 μL of supernatant (without disturbing the pellet) was transferred to a clean and clear polystyrene flat bottomed 96-well plate and the absorbance of the sample at a single wavelength was measured using a BioTech Synergy H1 Plate Reader at a wavelength of 410 nm. The positive control for this assay was amphotericin B test at concentrations of 1, 10, 30, and 100 μM.

[3] = system: HEK293 uptake transporter overexpressing and control cells; assay: Resazurin-based cytotoxicity assay
Method: The cells were plated on 96-well plates. Prior to the experiment the medium was removed, and cells were rinsed with 2×100 μL of the respective buffer for uptake transporter transfected and control cell lines.

[4] = MATE1 assay, 12.50 μM, incubation 30 + 3 min
[5] = MATE1 assay, 50.00 μM, incubation 30 + 3 min
[6] = MATE1 assay, 100.00 μM, incubation 30 + 3 min
[7] = MATE2-K assay, 12.50 μM, incubation 30 + 1 min
[8] = MATE2-K assay, 50.00 μM, incubation 30 + 1 min
[9] = MATE2-K assay, 100.00 μM, incubation 30 + 1 min
[10] = OAT1 assay, 12.50 μM, incubation 30 + 2 min
[11] = OAT1 assay, 50.00 μM, incubation 30 + 2 min
[12] = OAT1 assay, 100.00 μM, incubation 30 + 2 min
[13] = OAT3 assay, 12.50 μM, incubation 30 + 1 min
[14] = OAT3 assay, 50.00 μM, incubation 30 + 1 min
[15] = OAT3 assay, 100.00 μM, incubation 30 + 1 min
[16] = OATP1B1 assay, 12.50 μM, incubation 30 + 3 min
[17] = OATP1B1 assay, 50.00 μM, incubation 30 + 3 min
[18] = OATP1B1 assay, 100.00 μM, incubation 30 + 3 min
[19] = OATP1B3 assay, 12.50 μM, incubation 30 + 2 min
[20] = OATP1B3 assay, 50.00 μM, incubation 30 + 2 min
[21] = OATP1B3 assay, 100.00 μM, incubation 30 + 2 min
[22] = OCT1 assay, 12.50 μM, incubation 30 + 3 min
[23] = OCT1 assay, 50.00 μM, incubation 30 + 3 min
[24] = OCT1 assay, 100.00 μM, incubation 30 + 3 min
[25] = OCT2 assay, 12.50 μM, incubation 30 + 1 min
[26] = OCT2 assay, 50.00 μM, incubation 30 + 1 min
[27] = OCT2 assay, 100.00 μM, incubation 30 + 1 min

Clc1ccc(C2(OCC3OCCO3)c3ccccc3C3=NCCN32)cc1 (stereo not shown) [Compound I-19]
% parent compound remaining ([1]; rat plasma): small time-dependent decrease in the amount of parent compound present
% parent compound remaining ([1]; rat red blood cells): small time-dependent decrease in the amount of parent compound present
% parent compound remaining ([1]; rat whole blood): small time-dependent decrease in the amount of parent compound present
EC50 (% RBC lysis) [2]: outside the concentration range tested
% RBC lysis (hemolytic potential) ([2]; test articles 25, 50, 100 μM, amphotericin B 1, 10, 30, 100 μM): no detectable hemolysis
Cell viability (cytotoxic effect) ([3]; HEK293-MATE1-LV, -MATE2-K-LV, -OAT1-LV, -OAT3-LV, -OATP1B1-LV, -OATP1B3-LV, -OCT1-LV, -OCT2-LV and control cells): did not reduce the cell viability
Relative cell viability, control cells [3, 4]: 97.67 ± 3.73 % of control
Relative cell viability, transfected cells [3, 4]: 97.90 ± 1.86 % of control
Relative cell viability, control cells [3, 5]: 93.64 ± 2.83 % of control
Relative cell viability, transfected cells [3, 5]: 95.88 ± 2.04 % of control
Relative cell viability, control cells [3, 6]: 85.16 ± 2.74 % of control
Relative cell viability, transfected cells [3, 6]: 97.35 ± 2.64 % of control
Relative cell viability, control cells [3, 7]: 104.66 ± 2.14 % of control
Relative cell viability, transfected cells [3, 7]: 101.07 ± 1.57 % of control
Relative cell viability, control cells [3, 8]: 104.14 ± 1.46 % of control
Relative cell viability, transfected cells [3, 8]: 106.73 ± 1.88 % of control
Relative cell viability, control cells [3, 9]: 84.34 ± 2.47 % of control
Relative cell viability, transfected cells [3, 9]: 101.71 ± 1.17 % of control
Relative cell viability, control cells [3, 10]: 98.64 ± 5.98 % of control
Relative cell viability, transfected cells [3, 10]: 97.97 ± 3.47 % of control
Relative cell viability, control cells [3, 11]: 97.24 ± 5.90 % of control
Relative cell viability, transfected cells [3, 11]: 95.01 ± 3.42 % of control
Relative cell viability, control cells [3, 12]: 90.45 ± 6.49 % of control
Relative cell viability, transfected cells [3, 12]: 88.69 ± 3.44 % of control
Relative cell viability, control cells [3, 13]: 102.06 ± 3.84 % of control
Relative cell viability, transfected cells [3, 13]: 99.42 ± 0.98 % of control
Relative cell viability, control cells [3, 14]: 92.66 ± 3.32 % of control
Relative cell viability, transfected cells [3, 14]: 97.87 ± 1.31 % of control
Relative cell viability, control cells [3, 15]: 83.05 ± 3.00 % of control
Relative cell viability, transfected cells [3, 15]: 97.06 ± 1.13 % of control
Relative cell viability, control cells [3, 16]: 96.78 ± 4.68 % of control
Relative cell viability, transfected cells [3, 16]: 99.91 ± 0.74 % of control
Relative cell viability, control cells [3, 17]: 93.42 ± 4.34 % of control
Relative cell viability, transfected cells [3, 17]: 98.71 ± 0.94 % of control
Relative cell viability, control cells [3, 18]: 89.12 ± 4.63 % of control
Relative cell viability, transfected cells [3, 18]: 94.19 ± 1.27 % of control
Relative cell viability, control cells [3, 19]: 103.94 ± 0.47 % of control
Relative cell viability, transfected cells [3, 19]: 102.23 ± 1.09 % of control
Relative cell viability, control cells [3, 20]: 101.22 ± 1.01 % of control
Relative cell viability, transfected cells [3, 20]: 101.42 ± 1.04 % of control
Relative cell viability, control cells [3, 21]: 95.06 ± 1.40 % of control
Relative cell viability, transfected cells [3, 21]: 97.75 ± 0.86 % of control
Relative cell viability, control cells [3, 22]: 101.25 ± 5.53 % of control
Relative cell viability, transfected cells [3, 22]: 92.84 ± 3.54 % of control
Relative cell viability, control cells [3, 23]: 98.64 ± 5.26 % of control
Relative cell viability, transfected cells [3, 23]: 92.82 ± 3.41 % of control
Relative cell viability, control cells [3, 24]: 92.32 ± 6.47 % of control
Relative cell viability, transfected cells [3, 24]: 86.46 ± 3.25 % of control
Relative cell viability, control cells [3, 25]: 99.87 ± 1.09 % of control
Relative cell viability, transfected cells [3, 25]: 99.66 ± 1.41 % of control
Relative cell viability, control cells [3, 26]: 97.55 ± 0.85 % of control
Relative cell viability, transfected cells [3, 26]: 99.58 ± 1.02 % of control
Relative cell viability, control cells [3, 27]: 87.66 ± 0.85 % of control
Relative cell viability, transfected cells [3, 27]: 96.29 ± 1.73 % of control
decrease of the relative cell viability compared to solvent (DMSO) ([3]; all uptake transporter overexpressing and control cells): less than 20%
